Measurements from publication PMC6154694, “Absorption, Metabolic Stability, and Pharmacokinetics of Ginger Phytochemicals” (Molecules : A Journal of Synthetic Chemistry and Natural …, 2017).

Experiments:
[1] = Mouse pharmacokinetic study of oral GE with and without ketoconazole, plasma with and without β-glucuronidase treatment; type: in vivo, male mice (C57BL6J); settings: for Concentration Ratio (Total/Free) of GE Phenolics: GE administered group; for Concentration Ratio (Total/Free) of GE Phenolics / concentration at 0 h / concentration at 0.087 h / concentration at 0.167 h / concentration at 0.25 h / concentration at 0.5 h / concentration at 1 h / concentration at 2 h / concentration at 3 h / concentration at 4 h / concentration at 6 h / concentration at 8 h / concentration at 12 h: mouse plasma; for AUC(0-t) / Cmax / Tmax / concentration at 0 h / concentration at 0.087 h / concentration at 0.167 h / concentration at 0.25 h / concentration at 0.5 h / concentration at 1 h / concentration at 2 h / concentration at 3 h / concentration at 4 h / concentration at 6 h / concentration at 8 h / concentration at 12 h: male, C57BL6J; for AUC(0-t) / Cmax / Tmax: mouse, plasma, po, 250 mg/kg
Protocol: A solution formulation of GE was prepared by using 5% ethanol, 5% Tween 80, 40% polyethylene glycol, and 50% corn oil. The dose volume was 10 mL/kg and the dose administered was 250 mg/kg GE.
Pharmacokinetic study in male mice (C57BL6J, Harlan Laboratories, Indianapolis, IN, USA) was run with 36 animals in each group at a GE dose of 250 mg/kg with a dose volume of 10 mL/kg. One group was given GE alone and in the second group GE was co-administered with KTZ (50 mg/kg). A terminal sampling design was used to collect blood samples at 0 (pre-dose), 0.08, 0.16, 0.25, 0.5, 1, 2, 3, 4, 6, 8, and 12 h. At each time, 1 mL of blood was collected in ethylenediaminetetraacetic acid di-potassium salt (K2EDTA) tubes (BD Biosciences, Franklin Lakes, NJ, USA). Plasma was separated by centrifugation of samples at 4000 rpm for 10 min and stored below −60 °C till bioanalysis. All experiments were performed with approval from the Institutional Animal Care and Use Committee (IACUC, approval code: A14031). All animals were acclimatized for five days before dosing in the experimental area. Food and water was provided ad libitum throughout the study period. Animals were marked and housed (three per cage, n = 36 per group) in polypropylene cages and maintained in controlled environmental conditions with 12 h light and dark cycles. The temperature and humidity of the room was maintained between 22 ± 3 °C and 30% to 50%, respectively, and approximately 10–12 fresh air change cycles per hour.
To confirm the presence of GE glucuronide conjugates, plasma (100 μL) was treated with βgd (20 μL, 500 units) and incubated at 37 °C for 1 h. Each sample was analyzed twice with and without β-gd treatment. Samples without gde treatment were diluted with 20 μL of buffer. Total (conjugated + free) and free ginger phenolics data were reported following bioanalysis.
All in vitro and in vivo samples were processed by protein precipitation method. An aliquot (100 μL) of the sample was spiked with 200 μL of acetonitrile containing dihydrocapsaicin as internal standard (IS) and vortex mixed for 3 min. The tubes were centrifuged at 12,000 rpm for 10 min and an aliquot of supernatant was transferred into autosampler vials for analysis. The stock solutions of 6G, 8G, 10G, and 6S were prepared in ACN/water (70:30) at 1 mg/mL. A calibration curve (CC) range of 2–2000 ng/mL was employed for the quantification of analytes and IS concentration was 150 ng/mL for each analysis. The CC consisted of blank, blank with IS and seven non-zero calibration standards. The calibration standards were within ±15% of the nominal concentration and lower limit of quantification was within ±20% of nominal. All samples were analyzed using liquid chromatography tandem mass spectrometry (LC-MS/MS) method (Agilent 6410 series, Santa Clara, CA, USA). A positive ionization mode with multiple reaction monitoring (MRM, m/z Q1/Q3) of 6G (m/z 277.1/177.1, retention time (RT) 2.0 min), 8G (m/z 305.1/177.1, RT 4.0 min), 10G (m/z 333.1/177.1, RT 7.7 min), 6S (m/z 277.1/137.1, RT 5.1 min), and IS (m/z 308.2/137.1, RT 3.4 min) was employed. The ion spray voltage was set at 3500 V, ionization temperature was set to 300 °C and drying gas flow rate was 10 L/min. Data acquisition and quantitation were performed using Mass Hunter software (Agilent Technologies, Wilmington, DE, USA). Separation was achieved using HP1100 series LC (Agilent Technologies) with an Agilent Zorbax reversed-phase (SB-C18, 2.1 × 50 mm, 5.0 μm) column. A gradient method was employed to separate the individual GE phenolics using mobile phase A (0.1% formic acid in water) and mobile phase B (Acetonitrile). The gradient elution method with 50% B at 0 min, 90% B at 5 min, held for 2.1 min, back to 50% B at 7.1 min with a flow rate of 0.2 mL/min. An injection volume of 2 μL was used for analysis. […]

[2] = Liver microsomal stability, mouse; type: in vitro ADME, CD1 mouse; settings: protein 0.5 mg/mL
Protocol: (§1) Pooled liver microsomes from CD1 mouse, IGS Sprague-Dawley rat, Beagle dog, and mixed gender human were used for assays. Incubations (1 mL) consisted of liver microsomes (0.5 mg/mL), NADPH (1 mM) and 100 mM sodium phosphate buffer (pH 7.4). Following pre-incubation (10 min, 37 °C), reactions were initiated by spiking ACN/DMSO (80:20) stock solutions of GE phenolics (5 μL, 10 μM). Samples (100 μL) were withdrawn at 0, 5, 10, 15, 20 and 30 min and quenched with 200 μL acetonitrile containing internal standard. Concomitant NADPH-free control incubations were prepared similarly.

[3] = Liver microsomal stability, human; type: in vitro ADME; settings: protein 0.5 mg/mL
Protocol: as §1

[4] = 250 mg/kg GE + 50 mg/kg KTZ oral, +KTZ −βgd

- AUClast Ratio ([1]; +KTZ +βgd, reference GE group co-administered with KTZ untreated with βgd): 11
- AUClast Ratio ([1]; +KTZ +βgd, reference GE group untreated with βgd): 32
- AUClast Ratio ([1]; +KTZ −βgd, reference GE group untreated with βgd): 3
- Concentration Ratio (Total/Free) of GE Phenolics ([1]; 0 h): 0
- Concentration Ratio (Total/Free) of GE Phenolics ([1]; 0.087 h): 5
- Concentration Ratio (Total/Free) of GE Phenolics ([1]; 0.167 h): 11
- Concentration Ratio (Total/Free) of GE Phenolics ([1]; 0.25 h): 24
- Concentration Ratio (Total/Free) of GE Phenolics ([1]; 0.5 h): 13
- Concentration Ratio (Total/Free) of GE Phenolics ([1]; 1 h): 8
- Concentration Ratio (Total/Free) of GE Phenolics ([1]; 2 h): 19
- Concentration Ratio (Total/Free) of GE Phenolics ([1]; 3 h): 9
- Concentration Ratio (Total/Free) of GE Phenolics ([1]; 4 h): 9
- Concentration Ratio (Total/Free) of GE Phenolics ([1]; 6 h): 15
- Concentration Ratio (Total/Free) of GE Phenolics ([1]; 8 h): 0
- Concentration Ratio (Total/Free) of GE Phenolics ([1]; 12 h): 0
- AUC(0-t) ([1]; 250 mg/kg GE oral, −βgd): 0.0618 µg·h/mL
- Cmax ([1]; 250 mg/kg GE oral, −βgd): 56 ng/mL
- Tmax ([1]; 250 mg/kg GE oral, −βgd): 30 min
- AUC(0-t) [1, 4]: 0.174 µg·h/mL
- Cmax [1, 4]: 79 ng/mL
- Tmax [1, 4]: 30 min
- concentration at 0 h ([1]; 250 mg/kg GE oral, 0 h, −βgd): 0 µg/mL
- concentration at 0.087 h ([1]; 250 mg/kg GE oral, 0.087 h, −βgd): 43.1 ± 35.3 ng/mL
- concentration at 0.167 h ([1]; 250 mg/kg GE oral, 0.167 h, −βgd): 20.7 ± 6.15 ng/mL
- concentration at 0.25 h ([1]; 250 mg/kg GE oral, 0.25 h, −βgd): 25.9 ± 4.43 ng/mL
- concentration at 0.5 h ([1]; 250 mg/kg GE oral, 0.5 h, −βgd): 56 ± 31.6 ng/mL
- concentration at 1 h ([1]; 250 mg/kg GE oral, 1 h, −βgd): 2.21 ± 0.62 ng/mL
- concentration at 2 h ([1]; 250 mg/kg GE oral, 2 h, −βgd): 4.08 ± 1.61 ng/mL
- concentration at 3 h ([1]; 250 mg/kg GE oral, 3 h, −βgd): 5.25 ± 1.06 ng/mL
- concentration at 4 h ([1]; 250 mg/kg GE oral, 4 h, −βgd): 3.06 ± 1.19 ng/mL
- concentration at 6 h ([1]; 250 mg/kg GE oral, 6 h, −βgd): 2.43 ± 1.16 ng/mL
- concentration at 8 h ([1]; 250 mg/kg GE oral, 8 h, −βgd): 5.04 ± 5.89 ng/mL
- concentration at 12 h ([1]; 250 mg/kg GE oral, 12 h, −βgd): 0.62 ± 0.72 ng/mL
- concentration at 0 h ([1]; 250 mg/kg GE with 50 mg/kg ketoconazole oral, 0 h, −βgd): 0 µg/mL
- concentration at 0.087 h ([1]; 250 mg/kg GE with 50 mg/kg ketoconazole oral, 0.087 h, −βgd): 0 ng/mL
- concentration at 0.167 h ([1]; 250 mg/kg GE with 50 mg/kg ketoconazole oral, 0.167 h, −βgd): 5.66 ± 5.12 ng/mL
- concentration at 0.25 h ([1]; 250 mg/kg GE with 50 mg/kg ketoconazole oral, 0.25 h, −βgd): 20.5 ± 21.6 ng/mL
- concentration at 0.5 h ([1]; 250 mg/kg GE with 50 mg/kg ketoconazole oral, 0.5 h, −βgd): 14000 ng/mL
- concentration at 1 h ([1]; 250 mg/kg GE with 50 mg/kg ketoconazole oral, 1 h, −βgd): 54.5 ± 58.3 ng/mL
- concentration at 2 h ([1]; 250 mg/kg GE with 50 mg/kg ketoconazole oral, 2 h, −βgd): 27900 ng/mL
- concentration at 3 h ([1]; 250 mg/kg GE with 50 mg/kg ketoconazole oral, 3 h, −βgd): 45.8 ± 48.2 ng/mL
- concentration at 4 h ([1]; 250 mg/kg GE with 50 mg/kg ketoconazole oral, 4 h, −βgd): 6.52 ± 1.14 ng/mL
- concentration at 6 h ([1]; 250 mg/kg GE with 50 mg/kg ketoconazole oral, 6 h, −βgd): 8.07 ± 5.96 ng/mL
- concentration at 8 h ([1]; 250 mg/kg GE with 50 mg/kg ketoconazole oral, 8 h, −βgd): 3.71 ± 2.46 ng/mL
- concentration at 12 h ([1]; 250 mg/kg GE with 50 mg/kg ketoconazole oral, 12 h, −βgd): 2.61 ± 1.41 ng/mL
- remaining at 0.5 h, 10 µM ([2]; CD1, pooled liver microsomes, pH 7.4, substrate 10 µM, n = 2, read-out: % Remaining at 30 min): 10%
- Intrinsic Clearance ([2]; mouse liver microsomes, substrate 10 µM, 45 mg protein/g liver): 8.0 mL/min/g Liver
- remaining at 0.5 h, 10 µM ([3]; both sexes, pooled liver microsomes, pH 7.4, substrate 10 µM, n = 2, read-out: % Remaining at 30 min): 22%
- Intrinsic Clearance ([3]; human liver microsomes, substrate 10 µM, 45 mg protein/g liver): 6.7 mL/min/g Liver
Compound: CCCCCCCCCC(O)CC(=O)CCc1ccc(O)c(OC)c1 (stereo not shown) [10G, 10-gingerol]
